Literature values as cited in patent publication US20080004230A1, “SAM Riboswitch and Uses Thereof” (priority 2006, published 2008).
Like-named read-outs stand apart in the source and are kept apart here. Each block holds one compound with its values, some of them ahead of it.

Experiments:
[1] = biological target: SAM-I riboswitch RNA (yitJ homolog from B. subtilis); details: read-out: binding affinity of the analog for the riboswitch RNA
SAM-I riboswitch = details: binding preference of the riboswitch, SAM relative to SAH

Kd ([1]; analog with one less side chain methylene group): ~30 µM
SMILES: Nc1ncnc2c1ncn2[C@@H]1O[C@H](CSC[C@H](N)C(=O)O)[C@@H](O)[C@H]1O [SAC, S-adenosylcysteine]

Kd [1]: 0.4 µM
SMILES: Nc1ncnc2c1ncn2[C@@H]1O[C@H](CSCC[C@H](N)C(=O)O)[C@@H](O)[C@H]1O [SAH, S-adenosylhomocysteine]

SMILES: C[S+](CC[C@H](N)C(=O)O)C[C@H]1O[C@@H](n2cnc3c(N)ncnc32)[C@H](O)[C@@H]1O (stereo partly drawn) [SAM, S-adenosylmethionine]
preference for SAM over SAH (SAM-I riboswitch): 100 fold
